Tested on: 429239-143-T-J1-PDC complex spheroid viability
Assay: Anticancer human tumor 429239-143-T-J1-PDC patient-derived small cell lung carcinoma cell line growth inhibition [POLQ]
Conditions: for IC50: curve of first compound; for viability, T/C: stronger effect = lower value
Procedure, shortened: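 Complex spheroid viability model combining PDC tumour cells with endothelial (HUVEC) and MSC stromal cells. Novobiocin, ART-558 or RP6685 were tested singly and in combination with standard and investigational anticancer drugs. Each was titrated in half-log steps from near clinical Cmax, or from 10 microM where Cmax was unknown.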
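Note: luminescence signal used as surrogate measure of viable cells; spheroids exposed to compounds for seven days before readout.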
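Throughout, for viability, T/C: 100% = DMSO vehicle control viability as luminescence relative to vehicle.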

## CC(C)n1c(=O)n(C)c2cnc3cc(F)c(-c4ccc(OCCCN5CCCCC5)nc4)cc3c21 + Cc1cccc(N(C)C(=O)C2C(O)CCN2c2nc(C)cc(C(F)(F)F)c2C#N)c1
Second compound 0.0316 µM
  IC50: > 10 µM
Second compound 0.1 µM
  IC50: > 10 µM
Second compound 0.316 µM
  IC50: > 10 µM
Second compound 1 µM
  IC50: > 10 µM
Second compound 3.16 µM
  IC50: > 10 µM
Second compound 10 µM
  IC50: > 10 µM
Second compound 0.0316 µM, first compound 0.0316 µM
  viability, T/C: 104%
Second compound 0.0316 µM, first compound 0.1 µM
  viability, T/C: 83%
Second compound 0.0316 µM, first compound 0.316 µM
  viability, T/C: 92.2%
Second compound 0.0316 µM, first compound 1 µM
  viability, T/C: 78.4%
Second compound 0.0316 µM, first compound 3.16 µM
  viability, T/C: 78.8%
Second compound 0.0316 µM, first compound 10 µM
  viability, T/C: 72.5%
Second compound 0.1 µM, first compound 0.0316 µM
  viability, T/C: 90.5%
Second compound 0.1 µM, first compound 0.1 µM
  viability, T/C: 90.3%
Second compound 0.1 µM, first compound 0.316 µM
  viability, T/C: 91.7%
Second compound 0.1 µM, first compound 1 µM
  viability, T/C: 86.5%
Second compound 0.1 µM, first compound 3.16 µM
  viability, T/C: 77.7%
Second compound 0.1 µM, first compound 10 µM
  viability, T/C: 75.3%
Second compound 0.316 µM, first compound 0.0316 µM
  viability, T/C: 85%
Second compound 0.316 µM, first compound 0.1 µM
  viability, T/C: 93.9%
Second compound 0.316 µM, first compound 0.316 µM
  viability, T/C: 72.3%
Second compound 0.316 µM, first compound 1 µM
  viability, T/C: 92.6%
Second compound 0.316 µM, first compound 3.16 µM
  viability, T/C: 81.8%
Second compound 0.316 µM, first compound 10 µM
  viability, T/C: 69.7%
Second compound 1 µM, first compound 0.0316 µM
  viability, T/C: 81.8%
Second compound 1 µM, first compound 0.1 µM
  viability, T/C: 95.7%
Second compound 1 µM, first compound 0.316 µM
  viability, T/C: 94.2%
Second compound 1 µM, first compound 1 µM
  viability, T/C: 73.4%
Second compound 1 µM, first compound 3.16 µM
  viability, T/C: 75.6%
Second compound 1 µM, first compound 10 µM
  viability, T/C: 62.6%
Second compound 3.16 µM, first compound 0.0316 µM
  viability, T/C: 89.2%
Second compound 3.16 µM, first compound 0.1 µM
  viability, T/C: 108%
Second compound 3.16 µM, first compound 0.316 µM
  viability, T/C: 88.8%
Second compound 3.16 µM, first compound 1 µM
  viability, T/C: 87.8%
Second compound 3.16 µM, first compound 3.16 µM
  viability, T/C: 77.6%
Second compound 3.16 µM, first compound 10 µM
  viability, T/C: 64.7%
Second compound 10 µM, first compound 0.0316 µM
  viability, T/C: 83.3%
Second compound 10 µM, first compound 0.1 µM
  viability, T/C: 88.9%
Second compound 10 µM, first compound 0.316 µM
  viability, T/C: 83.3%
Second compound 10 µM, first compound 1 µM
  viability, T/C: 89.1%
Second compound 10 µM, first compound 3.16 µM
  viability, T/C: 83.4%
Second compound 10 µM, first compound 10 µM
  viability, T/C: 53.6%

## CC(=O)O[C@H]1C(=O)[C@@]2(C)[C@H]([C@H](OC(=O)c3ccccc3)[C@]3(O)C[C@H](OC(=O)[C@H](O)[C@@H](NC(=O)c4ccccc4)c4ccccc4)C(C)=C1C3(C)C)[C@]1(OC(C)=O)CO[C@@H]1C[C@@H]2O + COC1C(OC(N)=O)C(O)C(Oc2ccc3c(O)c(NC(=O)c4ccc(O)c(CC=C(C)C)c4)c(=O)oc3c2C)OC1(C)C
Second compound 0.0316 µM
  IC50: < 0.00949 µM
Second compound 0.1 µM
  IC50: < 0.00949 µM
Second compound 0.316 µM
  IC50: < 0.00949 µM
Second compound 1 µM
  IC50: < 0.00949 µM
Second compound 3.16 µM
  IC50: < 0.00949 µM
Second compound 10 µM
  IC50: < 0.00949 µM
Second compound 0.0316 µM, first compound 0.00949 µM
  viability, T/C: 12.5%
Second compound 0.0316 µM, first compound 0.03 µM
  viability, T/C: 12.8%
Second compound 0.0316 µM, first compound 0.0949 µM
  viability, T/C: 10.9%
Second compound 0.0316 µM, first compound 0.3 µM
  viability, T/C: 13.6%
Second compound 0.0316 µM, first compound 0.949 µM
  viability, T/C: 11.8%
Second compound 0.0316 µM, first compound 3 µM
  viability, T/C: 13.3%
Second compound 0.1 µM, first compound 0.00949 µM
  viability, T/C: 14.8%
Second compound 0.1 µM, first compound 0.03 µM
  viability, T/C: 13.2%
Second compound 0.1 µM, first compound 0.0949 µM
  viability, T/C: 13.4%
Second compound 0.1 µM, first compound 0.3 µM
  viability, T/C: 11.5%
Second compound 0.1 µM, first compound 0.949 µM
  viability, T/C: 12.4%
Second compound 0.1 µM, first compound 3 µM
  viability, T/C: 14.3%
Second compound 0.316 µM, first compound 0.00949 µM
  viability, T/C: 13.8%
Second compound 0.316 µM, first compound 0.03 µM
  viability, T/C: 11.2%
Second compound 0.316 µM, first compound 0.0949 µM
  viability, T/C: 11.2%
Second compound 0.316 µM, first compound 0.3 µM
  viability, T/C: 11.3%
Second compound 0.316 µM, first compound 0.949 µM
  viability, T/C: 12.4%
Second compound 0.316 µM, first compound 3 µM
  viability, T/C: 12.2%
Second compound 1 µM, first compound 0.00949 µM
  viability, T/C: 12.5%
Second compound 1 µM, first compound 0.03 µM
  viability, T/C: 12.4%
Second compound 1 µM, first compound 0.0949 µM
  viability, T/C: 12.6%
Second compound 1 µM, first compound 0.3 µM
  viability, T/C: 11.6%
Second compound 1 µM, first compound 0.949 µM
  viability, T/C: 14.2%
Second compound 1 µM, first compound 3 µM
  viability, T/C: 13.9%
Second compound 3.16 µM, first compound 0.00949 µM
  viability, T/C: 15.9%
Second compound 3.16 µM, first compound 0.03 µM
  viability, T/C: 12.6%
Second compound 3.16 µM, first compound 0.0949 µM
  viability, T/C: 12%
Second compound 3.16 µM, first compound 0.3 µM
  viability, T/C: 11.3%
Second compound 3.16 µM, first compound 0.949 µM
  viability, T/C: 15.8%
Second compound 3.16 µM, first compound 3 µM
  viability, T/C: 13.8%
Second compound 10 µM, first compound 0.00949 µM
  viability, T/C: 14.8%
Second compound 10 µM, first compound 0.03 µM
  viability, T/C: 12.8%
Second compound 10 µM, first compound 0.0949 µM
  viability, T/C: 12.1%
Second compound 10 µM, first compound 0.3 µM
  viability, T/C: 12.8%
Second compound 10 µM, first compound 0.949 µM
  viability, T/C: 12.6%
Second compound 10 µM, first compound 3 µM
  viability, T/C: 13.3%

Reference: PubChem BioAssay AID1963845 (Molecular Pharmacology Branch, DTP, NCI, 2024)
